Results reported in patent publication US8940769B2, “Biaryl benzoimidazole derivatives and pharmaceutical composition comprising the same” (Daewoong Pharmaceutical Co., Ltd., priority 2006, dated 2015).

Molecular target: T1, human vanilloid receptor VR-1 (hVR1) (Homo sapiens, UniProt Q8NER1)
T1 construct: expressed in transfected cells; host or cells: HEK293 Tet-on cells (hVR1-HEK293), expression induced with doxycycline
Test: Calcium influx test of vanilloid receptor (capsaicin-induced, Fluo-3/AM, hVR1-HEK293 cells)
Type: cell-based
Details: for IC50: calcium influx induced by 1 μM capsaicin, read-out: Inhibitory effect IC50 (nM) on calcium influx; for inhibition at 0.2 µM: single concentration of compound 200 nM, 1 μM capsaicin, read-out: Inhibitory effect (%) on calcium influx
Experimental: In order to measure an activity of the biaryl benzoimidazole derivative of the invention as an antagonist, a calcium influx test was performed.
An hVR1-HEK293 cell line is a cell line, in which a Human Embryonic Kidney (HEK) 293 Tet-on cell is transformed with a human vanilloid-1 gene (pTRE2hyg-hVR1, 7.8 kb). The cell line can regulate a VR-1 expression, depending on the administration of a tetracycline analogue, doxycycline. At two days before the calcium influx test, the cell line was cultured in media containing doxycycline to induce the VR-1 expression, and then used. First, the hVR1-HEK293 cells were cultured in T75 flasks to have a density of about 80%, and then detached from the bottom of the flasks by using trypsin. The detached cells were centrifuged and collected. Then, the cells were suspended in media containing 1 μg/mL doxycycline, and diluted to have a concentration of 2×10^5 to 4×10^5 cells/mL. 100 μL of the suspended cells were added to each well of 96-well black plate, cultured at 37° C. and 5% CO2 cell incubator for two days, and then used in the calcium influx test.
The compound was dissolved in dimethyl sulfoxide (DMSO), and then used for the calcium influx test.
In order to measure the calcium influx […], the cells were cultured in a solution containing Fluo-3/AM, which is a calcium indicator, at 37° C. for 90 minutes, so as to be permeated by a fluorescent dye. […] 193 μL D-PBS were added to each well, and then the compound was added thereto in various concentrations. To measure an activity as an antagonist, the cells were treated with 1 μM capsaicin to stimulate the calcium influx. The inhibitory effect of the compound when calcium influx was induced by 1 μM capsaicin was measured depending on its concentration using a fluorescence spectrometer, and the obtained data were substituted into a hill equation to analyze the values.
The inhibitory effect on calcium influx was measured with a single concentration of the compounds of the invention (200 nM), and the result thereof are shown in Table 2.

T1 sequence (Q8NER1 whole entry): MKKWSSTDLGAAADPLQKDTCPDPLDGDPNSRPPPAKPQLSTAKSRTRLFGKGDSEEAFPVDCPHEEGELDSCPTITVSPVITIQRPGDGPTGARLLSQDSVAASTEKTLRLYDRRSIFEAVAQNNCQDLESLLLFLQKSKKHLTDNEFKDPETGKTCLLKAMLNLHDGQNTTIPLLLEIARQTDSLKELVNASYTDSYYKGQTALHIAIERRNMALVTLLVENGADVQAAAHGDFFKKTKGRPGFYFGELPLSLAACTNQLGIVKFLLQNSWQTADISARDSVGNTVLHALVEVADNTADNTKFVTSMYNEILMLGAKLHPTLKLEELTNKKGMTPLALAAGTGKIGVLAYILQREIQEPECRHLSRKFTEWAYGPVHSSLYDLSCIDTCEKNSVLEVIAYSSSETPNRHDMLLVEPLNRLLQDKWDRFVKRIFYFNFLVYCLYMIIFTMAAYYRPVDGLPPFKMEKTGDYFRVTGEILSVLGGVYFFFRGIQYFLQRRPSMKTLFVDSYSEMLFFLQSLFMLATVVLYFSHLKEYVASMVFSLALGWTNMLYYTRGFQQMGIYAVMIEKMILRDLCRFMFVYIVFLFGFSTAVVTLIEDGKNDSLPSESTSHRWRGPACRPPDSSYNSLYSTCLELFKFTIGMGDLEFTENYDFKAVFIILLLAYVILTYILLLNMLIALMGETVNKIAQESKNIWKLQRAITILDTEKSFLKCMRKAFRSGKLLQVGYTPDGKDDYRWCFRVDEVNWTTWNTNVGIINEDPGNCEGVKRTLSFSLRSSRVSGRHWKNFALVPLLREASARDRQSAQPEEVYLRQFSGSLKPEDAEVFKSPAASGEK

SMILES	IC50 [nM]	inhibition at 0.2 µM [%]
CC(C)(C)c1ccc2nc(-c3ccc(-c4ncc(C=O)cc4Cl)cc3)[nH]c2c1 [Compound 59, 6-[4-(6-tert-butyl-1H-benzoimidazol-2-yl)-phenyl]-5-chloro-pyridine-3-carbaldehyde]	29.5	82.5
CCNC(=O)c1cnc(-c2ccc(-c3nc4ccc(C(F)(F)F)cc4[nH]3)cc2)c(Cl)c1 [Compound 61, 5-chloro-N-ethyl-6-[4-(6-trifluoromethyl-1H-benzoimidazol-2-yl)-phenyl]-nicotinamide]	–	23.4
CCNC(=O)c1cnc(-c2ccc(-c3nc4ccc(C(C)(C)C)cc4[nH]3)cc2)c(Cl)c1 [Compound 62, 6-[4-(6-tert-butyl-1H-benzoimidazol-2-yl)-phenyl]-5-chloro-N-ethyl-nicotinamide]	126	54.3
CCNC(=O)c1cnc(-c2ccc(-c3nc4ccc(Br)cc4[nH]3)cc2)c(Cl)c1 [Compound 63, 6-[4-(6-bromo-1H-benzoimidazol-2-yl)-phenyl]-5-chloro-N-ethyl-nicotinamide]	397	38.3
CCNC(=O)c1cnc(-c2ccc(-c3nc4ncc(Br)cc4[nH]3)cc2)c(Cl)c1 [Compound 64, 6-[4-(6-bromo-1H-imidazo[4,5-b]pyridin-2-yl)-phenyl]-5-chloro-N-ethyl-nicotinamide]	–	11.1
CCNC(=O)c1cnc(-c2ccc(-c3nc4c(Br)cc(C(F)(F)F)cc4[nH]3)cc2)c(Cl)c1 [Compound 65, 6-[4-(4-bromo-6-trifluoromethyl-1H-benzoimidazol-2-yl)-phenyl]-5-chloro-N-ethyl-nicotinamide]	–	30.9
COC(=O)c1cnc(-c2ccc(-c3nc4ccc(N5CCOCC5)cc4[nH]3)nc2)c(Cl)c1 [Compound 71, 3-chloro-6′-(6-morpholin-4-yl-1H-benzoimidazol-2-yl)-[2,3′]bipyridinyl-5-carboxylic acid methyl ester]	–	7.1
COC(=O)c1cnc(-c2ccc(-c3nc4ccc(C(C)(C)C)cc4[nH]3)nc2)c(Cl)c1 [Compound 74, 6′-(6-tert-butyl-1H-benzoimidazol-2-yl)-3-chloro-[2,3′]bipyridinyl-5-carboxylic acid methyl ester]	26.2	81.3
COC(=O)c1cnc(-c2ccc(-c3nc4ncc(Br)cc4[nH]3)nc2)c(Cl)c1 [Compound 76, 6′-(6-bromo-1H-imidazo[4,5-b]pyridin-2-yl)-3-chloro-[2,3′]bipyridinyl-5-carboxylic acid methyl ester]	–	7
COC(=O)c1cnc(-c2ccc(-c3nc4c(Br)cc(C(F)(F)F)cc4[nH]3)nc2)c(Cl)c1 [Compound 77, 6′-(4-bromo-6-trifluoromethyl-1H-benzoimidazol-2-yl)-3-chloro-[2,3′]bipyridinyl-5-carboxylic acid methyl ester]	–	48.9
COC(=O)c1cnc(-c2ccc(-c3nc4c(Br)cc(Br)cc4[nH]3)nc2)c(Cl)c1 [Compound 78, 3-chloro-6′-(4,6-dibromo-1H-benzoimidazol-2-yl)-[2,3′]bipyridinyl-5-carboxylic acid methyl ester]	–	4.1
O=C(O)c1cnc(-c2ccc(-c3nc4ccc(N5CCOCC5)cc4[nH]3)nc2)c(Cl)c1 [Compound 79, 3-chloro-6′-(6-morpholin-4-yl-1H-benzoimidazol-2-yl)-[2,3′]bipyridinyl-5-carboxylic acid]	–	3.3
CN1CCN(c2ccc3nc(-c4ccc(-c5ncc(C(=O)O)cc5Cl)cn4)[nH]c3c2)CC1 [Compound 80, 3-chloro-6′-[6-(4-methyl-piperazin-1-yl)-1H-benzoimidazol-2-yl]-[2,3′]bipyridinyl-5-carboxylic acid]	–	-5
O=C(O)c1cnc(-c2ccc(-c3nc4ccc(C(F)(F)F)cc4[nH]3)nc2)c(Cl)c1 [Compound 81, 3-chloro-6′-(6-trifluoromethyl-1H-benzoimidazol-2-yl)-[2,3′]bipyridinyl-5-carboxylic acid]	–	9.6
O=C(O)c1cnc(-c2ccc(-c3nc4ncc(Br)cc4[nH]3)nc2)c(Cl)c1 [Compound 84, 6′-(6-bromo-1H-imidazo[4,5-b]pyridin-2-yl)-3-chloro-[2,3′]bipyridinyl-5-carboxylic acid]	–	6.3
O=C(O)c1cnc(-c2ccc(-c3nc4c(Br)cc(C(F)(F)F)cc4[nH]3)nc2)c(Cl)c1 [Compound 85, 6′-(4-bromo-6-trifluoromethyl-1H-benzoimidazol-2-yl)-3-chloro-[2,3′]bipyridinyl-5-carboxylic acid]	–	4.2
OCc1cnc(-c2ccc(-c3nc4ccc(N5CCOCC5)cc4[nH]3)nc2)c(Cl)c1 [Compound 87, [3-chloro-6′-(6-morpholin-4-yl-1H-benzoimidazol-2-yl)-[2,3′]bipyridinyl-5-yl]-methanol]	–	3.7
CN1CCN(c2ccc3nc(-c4ccc(-c5ncc(CO)cc5Cl)cn4)[nH]c3c2)CC1 [Compound 88, {3-chloro-6′-[6-(4-methyl-piperazin-1-yl)-1H-benzoimidazol-2-yl]-[2,3′]bipyridinyl-5-yl}-methanol]	–	15.3

The remaining lines, values ahead:

IC50 [nM]	inhibition at 0.2 µM [%]	SMILES
–	0.2	C=Cc1cnc(-c2ccc(-c3nc4ccc(C(F)(F)F)cc4[nH]3)nc2)c(Cl)c1 [Compound 66, 3-chloro-6′-(6-trifluoromethyl-1H-benzoimidazol-2-yl)-5-vinyl-[2,3′]bipyridinyl]
–	-8.8	C=Cc1cnc(-c2ccc(-c3nc4ccc(C(C)(C)C)cc4[nH]3)nc2)c(Cl)c1 [Compound 67, 6′-(6-tert-butyl-1H-benzoimidazol-2-yl)-3-chloro-5-vinyl-[2,3′]bipyridinyl]
–	-2.2	C=Cc1cnc(-c2ccc(-c3nc4ccc(Br)cc4[nH]3)nc2)c(Cl)c1 [Compound 68, 6′-(6-bromo-1H-benzoimidazol-2-yl)-3-chloro-5-vinyl-[2,3′]bipyridinyl]
–	11.3	C=Cc1cnc(-c2ccc(-c3nc4ccc(Cl)cc4[nH]3)nc2)c(Cl)c1 [Compound 69, 3-chloro-6′-(6-chloro-1H-benzoimidazol-2-yl)-5-vinyl-[2,3′]bipyridinyl]
–	0	C=Cc1cnc(-c2ccc(-c3nc4c(Br)cc(C(F)(F)F)cc4[nH]3)nc2)c(Cl)c1 [Compound 70, 6′-(4-bromo-6-trifluoromethyl-1H-benzoimidazol-2-yl)-3-chloro-5-vinyl-[2,3′]bipyridinyl]
–	45.3	COC(=O)c1cnc(-c2ccc(-c3nc4ccc(Br)cc4[nH]3)nc2)c(Cl)c1 [Compound 75, 6′-(6-bromo-1H-benzoimidazol-2-yl)-3-chloro-[2,3′]bipyridinyl-5-carboxylic acid methyl ester]
–	6.7	CC(C)(C)c1ccc2nc(-c3ccc(-c4ncc(C(=O)O)cc4Cl)cn3)[nH]c2c1 [Compound 82, 6′-(6-tert-butyl-1H-benzoimidazol-2-yl)-3-chloro-[2,3′]bipyridinyl-5-carboxylic acid]
–	22.8	O=C(O)c1cnc(-c2ccc(-c3nc4ccc(Br)cc4[nH]3)nc2)c(Cl)c1 [Compound 83, 6′-(6-bromo-1H-benzoimidazol-2-yl)-3-chloro-[2,3′]bipyridinyl-5-carboxylic acid]
